We go through 6 molecules from patent publication US5607926A, “Cephalosporin antibiotics” (Microcide Pharmaceuticals, Inc., priority 1995, dated 1997).

Molecules are shown by their SMILES. Converted amounts (≈) assume the structure as drawn. Counter-ions that a name gives are not always drawn. Like-named read-outs stand apart in the source and are kept apart here. A value given as a limit tells only on which side of the number the result lay.

The test system of test [1] is S. aureus ATCC 29213. In words: In vitro antibacterial evaluation, MIC by agar dilution, S. aureus ATCC 29213. The settings on record: Staphylococcus aureus, ATCC29213. Type of test: cell-based. In outline:
(§1)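 Growth inhibition on Mueller-Hinton agar plates defined the MIC, the lowest compound level stopping visible growth after 16-20 hours at 35°-36° C. Compound was incorporated at two-fold steps from 128 μg/mL to ≤0.25 μg/mL, each tested twice, with about 10^4 cfu spotted per isolate.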

The test system of test [2] is S. aureus 76 (Meth^R)(lac^+). In words: In vitro antibacterial evaluation, MIC by agar dilution, S. aureus 76. Type of test: cell-based. The settings on record: Staphylococcus aureus, read-out: MIC. The procedure, abridged:
as §1
On the technique in general: In agar dilution, organisms are placed on agar that contains the substance at set levels.

Test [3] relates to S. aureus Col8A (Meth^S)(lac^-). In words: In vitro antibacterial evaluation, MIC by agar dilution, S. aureus Col8A. The following applies: Staphylococcus aureus. In kind it is cell-based. In outline: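 Agar dilution per NCCLS (1991): two-fold dilutions from 128 μg/mL down to ≤0.25 μg/mL in Mueller-Hinton agar, each level in duplicate. Spots of about 10^4 cfu of log-phase culture; 16-20 h at 35°-36° C. MIC in μg/ml is the lowest concentration inhibiting growth.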

The test system of test [4] is S. haemolyticus (Meth^R). The test can be described thus: In vitro antibacterial evaluation, MIC by agar dilution, S. haemolyticus. Type of test: cell-based. The settings on record: Staphylococcus haemolyticus, read-out: MIC. In outline: as §1
The test system of test [5] is E. faecium ATCC 35667. The test can be described thus: In vitro antibacterial evaluation, MIC by agar dilution, E. faecium ATCC 35667. Type of test: cell-based. The settings on record: Enterococcus faecium, ATCC35667, read-out: MIC. In outline:
as §1

Test [6] concerns E. faecalis ATCC 29212. In words: In vitro antibacterial evaluation, MIC by agar dilution, E. faecalis ATCC 29212. Type of test: cell-based. The settings on record: Enterococcus faecalis, ATCC29212; E. faecalis ATCC 29212; read-out: MIC. The procedure, abridged: as §1
In test [7] the test system is E. coli ATCC 25922. The test can be described thus: In vitro antibacterial evaluation, MIC by agar dilution, E. coli ATCC 25922. In kind it is cell-based. The following applies: Escherichia coli, ATCC25922, read-out: MIC. In outline: as §1
Test [8] deals with P. aeruginosa ATCC 27853. In words: In vitro antibacterial evaluation, MIC by agar dilution, P. aeruginosa ATCC 27853. Type of test: cell-based. The following applies: Pseudomonas aeruginosa, ATCC27853, read-out: MIC. The procedure, abridged: as §1
Test [9] relates to methicillinsusceptible S. aureus strain ATCC 13709. In words: In vivo antibacterial evaluation, murine model for lethal bacteremic peritonitis. Set-up: species or system S. aureus in female Swiss-Webster mice. The following applies: Staphylococcus aureus, ATCC13709, sc, 72 h, two equal SC doses at challenge and 2 hours later, mice, probit. As to the method:
Groups of 5 female Swiss-Webster mice (Simonsen, Gilroy, Calif.) each are challenged by the intraperitoneal (IP) route with ten-fold increments of a bacterial inoculum. This permits calculation of the mean lethal dose (LD50) and the LD100. For preliminary evaluation of a new antibiotic, mice are challenged IP with an LD100 titer of bacteria. In two equal doses administered at the time of bacterial challenge and 2 hours later, groups of 10 mice each are treated subcutaneously with two-fold increments of the test drug and an antibiotic of known efficacy in mice and humans (i.e., positive control). Mice are observed for 72 h. Those alive at 72 h are considered long term survivors. The total drug dose in mg/kg that protects 50% of mice in a group from death is termed the mean protective dose (PD50). PD50 s are similarly determined for several pathogens. The quantitative endpoints for the new drug are then compared with those obtained with reference antibiotics.
Six ten-fold dilutions of inoculum suspended in 0.5 mL of sterilized 7% hog gastric mucin (Sigma) are injected IP in groups of 5 mice each. A control group of 5 mice receive mucin alone. Mice are observed for 72 h. Those alive at 72 h are considered long term survivors. The mean lethal dose (LD50) and 100% lethal dose (LD100) are determined by the probit test.
For antibiotic efficacy studies, mice are challenged IP with bacterial titers that will afford an LD100 for the test strain. In two equal doses administered at the time of bacterial challenge and 2 hours later, groups of 10 mice each are treated by the subcutaneous route (SC) with twofold increments of the test antibiotic; another group is treated similarly with a reference antibiotic of known efficacy in animals and man. Drug doses can range from 0.01 to 512 mg/kg. If the drug is poorly soluble, Tween 20 or propylene glycol will be employed to solubilize the drug. Animals are observed for 72 h. The 50% protective dose (PD50) is calculated in mg/kg by the probit method. The PD50 is the same as the 50% effective dose (ED50) and the 50% curative dose (CD50). Samples of blood from the hearts of all animals that die and from half the mice that survive are cultured on brain-heart infusion agar. Animals that received a protective dosage of the test drug will be alive at 72 h, although they may appear moderately ill to very ill during the observation period. […] Most of these mice will die within 6 to 48 h. Those alive at 72 h will be considered long term survivors.
(§2) data reported for challenge with methicillinsusceptible S. aureus strain

Test [10] has the same test system. In words: Challenge strain MIC. The following applies: Staphylococcus aureus. Type of test: cell-based. As to the method:
The compounds of the invention were evaluated against several β-lactamresistant bacteria strains by determining the minimum inhibitory concentration (MIC, μg/ml) of each compound with respect to each strain. The MIC, the lowest concentration of antibiotic which inhibits growth of the test organism, was determined by the agar dilution method.
To determine the MIC for bacterial isolates, the test compound was incorporated in a series of two-fold dilutions into liquified Mueller-Hinton agar. Upon solidification, a number of different bacterial strains were spot inoculated with a replicating device onto the agar surface. […] The procedures used in these studies have been standardized by the National Committee for Clinical Laboratory Standards (NCCLS), as per the NCCLS publication entitled METHODS FOR DILUTION ANTIMICROBIAL SUSCEPTIBILITY TESTS (1991), which is incorporated herein by reference.
Aliquots of antimicrobial agents were prepared in phosphate buffered saline (PBS) at pH 7.2. Tween 20 or DMSO was used as a solubilizing vehicle as needed. Standard methods of vortexing, sonicating and gentle heat were used to facilitate solubilizing the test agent. Typically, the concentration of the stock solution was 10× that of the highest drug concentration tested. A 1.28 mg/mL stock solution was used with a subsequent highest working concentration of 128 μg/mL. Serial two-fold dilutions were done through ≤0.25 μg/mL. Each drug level was tested in duplicate. Two-fold drug dilutions were done in sterile 50 mL tubes with a final drug volume of 5 mL. Upon the addition of 45 mL of molten agar, a 10-fold dilution resulted. Two, 25 mL. plates were then poured into 15×150 mm square Petri plates with grids and allowed to harden.
A control plate with a reference drug, either cefotaxime, vancomycin or imipenem, was used as the positive growth control. Stock concentrations of reference antibiotics were prepared and frozen at -80° C. Upon preparation, the control plates were sealed and stored in the refrigerator for up to 1 week prior to use; however, imipenem control plates had to be prepared just prior to use. All test plates were used within 24 hours of preparation.
Satisfactory results were obtained where the inoculum contained about 10^4 colony forming units (cfu) ±0.5 logs. Starting with pure cultures of the test isolates on agar plates, a few isolated colonies were transferred to a tube of nutrient broth and allowed to grow 4-6 hours at 35°-36° C. to reach log-phase growth. Dropwise addition of the broth culture to PBS was done to match a 0.5 McFarland turbidity standard equal to 10^8 cfu/mL. This was further diluted ten-fold in PBS to reach a working inoculum concentration of 10^7 cfu/mL. When 1 μL of the working inoculum was applied to the agar surface a concentration of about 10^4 cfu per spot was obtained.
Disposable sterile 1 μL loops were used to inoculate test plates, with each isolate in a designated grid on the agar plate. An alternate method of inoculation involved the use of a replica plater, a device with 48 steel pins allowing the simultaneous inoculation of multiple isolates. After the spots had dried, the plates were incubated at 35°-36° C. for 16-20 hours. Endpoints were assessed as the minimum inhibitory concentration (MIC) of antimicrobial agent.
as §2

Setting [11] is: ATCC13709, S. aureus ATCC 13709, read-out: Challenge str MIC.
Setting [12] is: ATCC13709, read-out: Challenge str MIC.

For orientation: MIC means the lowest concentration found to suppress growth. For orientation: ED50 means the midpoint of the dose-response relation. As to `N=C(N)SCc1ccc(CC(=O)N[C@@H]2C(=O)N3C(C(=O)O)=C(Sc4ccccc4CSC(=N)N)CS[C@H]23)cc1` [Cmpd 97, (7R)-7-[((4-isothiouroniummethylphenyl)acetyl)amino]-3-(2-isothiouroniummethylphenylthio)-3-cephem-4-carboxylate, trifluoroacetic acid salt], the MIC in [1] (S. aureus ATCC 29213, read-out: MIC) amounted to 0.06 µg/mL; in test [2], 4 µg/mL; in [3], 0.125 µg/mL; in [4], 8 µg/mL; in test [5] it was 1 µg/mL; in test [6] it was 0.5 µg/mL. Also, the values for the MIC in test [7], in [8] and in test [10] (setting [11]) were > 32 µg/mL, > 32 µg/mL and 0.062 µg/mL, respectively. The 50% effective dose (ED50) in [9] (read-out: ED50) was determined as 0.74 mg/kg.
Turning to `N=C(N)SCc1ccccc1SC1=C(C(=O)O)N2C(=O)[C@@H](NC(=O)Cc3ccccc3CN)[C@H]2SC1` [Cmpd 101, (7R)-7-[((2-Aminomethylphenyl)acetyl)amino]-3-(2-isothiouroniummethylphenylthio)-3-cephem-4-carboxylate, trifluoroacetic acid salt], the MIC in test [1] worked out at 0.25 µg/mL; in [2] it was 8 µg/mL; in test [3], 0.25 µg/mL; in [4], 16 µg/mL; in [5], 2 µg/mL; in test [6], 1 µg/mL. Moreover, the MIC in test [7] is > 32 µg/mL; in test [8], > 32 µg/mL; in test [10] (setting [11]), 0.125 µg/mL. Besides, the ED50 in [9] (read-out: ED50) is 0.65 mg/kg.
Take `N#Cc1ncccc1SC1=C(C(=O)O)N2C(=O)[C@@H](NC(=O)Cc3ccccc3)[C@H]2SC1` [Cmpd 102, (7R)-7-[(Phenylacetyl)amino]-3-(2-cyanopyridin-3-ylthio)-3-cephem-4-carboxylic acid]: the MIC amounted to 0.125 µg/mL (≈ 0.276 µM) in [1]; 16 µg/mL (≈ 35.4 µM) in test [2]; 0.125 µg/mL (≈ 0.276 µM) in [3]; 32 µg/mL (≈ 70.7 µM) in [4]; 4 µg/mL (≈ 8.84 µM) in test [5]; 2 µg/mL (≈ 4.42 µM) in [6]. In addition, the MIC in [7] is 32 µg/mL (≈ 70.7 µM); in [8], > 32 µg/mL; in test [10] (setting [12]), 0.125 µg/mL (≈ 0.276 µM). Moreover, in [9] (read-out: ED50), the ED50 is 1.75 mg/kg.
`O=C(CS/C=C\Cl)N[C@@H]1C(=O)N2C(C(=O)O)=C(Sc3ccnn3-c3ccccc3)CS[C@H]12` [Cmpd 131, (7R)-7-[((Z-2-Chlorovinyl)thioacetyl)amino]-3-(1-N-phenylpyrazol-5-ylthio)-3-cephem-4-carboxylic acid]: the MIC is 4 µg/mL (≈ 7.86 µM) in [2]; 32 µg/mL (≈ 62.9 µM) in test [4]; 1 µg/mL (≈ 1.96 µM) in [5]; 0.5 µg/mL (≈ 0.982 µM) in test [6]; > 32 µg/mL in test [7]; > 32 µg/mL in test [8]. For the same molecule, the MIC in test [10] (setting [11]) is 0.06 µg/mL (≈ 0.118 µM). The ED50 in test [9] (read-out: ED50) worked out at 1.73 mg/kg.
With `N=C(N)NCCSCC(=O)N[C@@H]1C(=O)N2C(C(=O)O)=C(Sc3ccccc3CSC(=N)N)CS[C@H]12` [Cmpd 137, (7R)-7-[((2-guanidinoethylthio)acetyl)amino]-3-(2-isothiouroniummethylphenylthio)-3-cephem-4-carboxylate, trifluoroacetic acid salt], the MIC in test [2] was 4 µg/mL; in [3], 0.06 µg/mL; in test [4] it was 16 µg/mL; in test [5], 0.25 µg/mL; in test [6], 0.5 µg/mL; in [7], 4 µg/mL. The figures for the MIC in test [8] and in [10] (setting [11]) were > 32 µg/mL and 0.06 µg/mL, respectively. Further, the ED50 in test [9] (read-out: ED50) came out at 0.75 mg/kg.
In the case of `CN[C@H](CC(C)C)C(=O)N[C@H]1C(=O)N[C@@H](CC(N)=O)C(=O)N[C@H]2C(=O)N[C@H]3C(=O)N[C@H](C(=O)N[C@H](C(=O)O)c4cc(O)cc(O)c4-c4cc3ccc4O)[C@H](O)c3ccc(c(Cl)c3)Oc3cc2cc(c3O[C@@H]2O[C@H](CO)[C@@H](O)[C@H](O)[C@H]2O[C@H]2C[C@](C)(N)[C@H](O)[C@H](C)O2)Oc2ccc(cc2Cl)[C@H]1O` [Vancomycin, reference compound], it took a dose of 2.81 mg/kg to reach the 50% effect level in [9] (ED50). In test [10] (setting [12]), the MIC was 1 µg/mL (≈ 0.69 µM).
